No end group written: not given here.
Columns and labels:
cancer cells = test: Confocal microscopy of peptide localisation; assay type: cell-based; conditions: 1 μM, 1 hour
Method: (§1) Figure 8 PS-Gp130 and PS-MYC blocking peptides efficiently internalize into tumor cells to exert their functions. (A) For 1 hour 1 μM of PS-conjugated MYC (PS-MYC) and Gp130 (PS-Gp130) were incubated with cancer cells. PS-scramble MYC (PS-SC-MYC) was used as a control for PS-MYC. The peptide uptake was visualized by confocal microscopy and quantified by flow cytometry. Data are representative of 3 independent experiments (n = 3). (B) Upper panel: The binding of PS-Gp130 and STAT3 was examined by immunoprecipitation and Western blotting. PO-Gp130 was used as a control. For 4 hours prior to harvest, 1 μM of peptide was incubated with cells. Lower panel: PS-Gp130 inhibits IL-6–induced phosphorylation of STAT3 and p44/42 but not EGF-mediated signaling. The cells were preincubated with PS-Gp130 for 2 hours and then stimulated with 20 ng/mL of IL-6 or 30 ng/mL of EGF for 30 minutes before harvest and Western blotting. (C) Gene expression of STAT3 targets was examined by quantitative PCR after the treatment with 1 μM of PS-Gp130 with or without IL-6 stimulation as described above. Data shown are 3 independent experiments (n = 3); SD is shown. Unpaired Student’s t test; ***P < 0.005; **P < 0.01; *P < 0.05. (D) A total of 1 μM of PS-SC-MYC or PS-MYC was incubated with cells for 48 hours before the gene expression of MYC targets was examined by quantitative PCR. […]

[1] = mouse, in vivo
Method: Supplemental Figure 10 (related to Figure 3). The systemic toxicity of PS-acet.-peptide.
The bodyweight (A), blood count (B) and organ morphology (H&E staining; spleen, kidney and liver) (C) of the mice (n=3) treated with HBSS (1), PS-oligo (2), naïve peptide (3), PO-peptide (4) or PS-peptide (5) every other day at 1 mg/kg (per treatment) for 3 weeks.
Individual value of each mouse is shown as a dot on the graph. The red lines on each graph in (B) indicate the normal ranges. Blood count was done by a veterinary hematology analyzer. The images shown in (C) are the represented H&E section from three mice (n=3). Enlarged view are shown below as indicated. Scale bar, 50 µm.
Aftabizadeh and Li et al., Figure S10
Supplemental Figure 12 (related to Figure 6).
(A) Amino acid sequences of phosphorothioated (*, PS) DNA oligonucleotide-modified Gp130 (PS-Gp130), MYC (PS-MYC) and scrambled MYC (PS-SC-MYC) peptides. PS-Gp130 peptide spans 9 amino acids of Gp130 protein (amino acids […]). PS-MYC peptide contains 9 amino acids of Max protein (amino acids 77-85).
(B and C) The bodyweight (B, n=5) and blood count (C, n=3) of the mice in each treatment group was measured at the end point. Individual value of each mouse is shown as a dot on the graph. The red lines on each graph indicate the normal ranges.
Aftabizadeh and Li et al., Figure S12

MYC target genes = test: Gene expression of MYC targets by quantitative PCR; assay type: cell-based; conditions: 1 μM, 48 hours, n = 3
Method: as §1, with “Lower panel: PS-Gp130 inhibits IL-6–induced phosphorylation of STAT3 and p44/42 but not EGF-mediated signaling. The cells were preincubated with PS-Gp130 for 2 hours and then stimulated with 20 ng/mL of IL-6 or 30 ng/mL of EGF for 30 minutes before harvest and Western blotting.” left out, “Data shown are 3 independent experiments (n = 3); SD is shown. Unpaired Student’s t test; ***P < 0.005; **P < 0.01; *P < 0.05.” left out
Total RNA was extracted from cultured or tumor tissues using RNeasy kit (QIAGEN), according to manufacturer’s instruction. After cDNA synthesis using iScript cDNA Synthesis kit (Bio-Rad), samples were analyzed using pairs of primers specific for CASP9, CASP3, CASP8, BIRC5, BCL2L1, MYC, TP53, VEGF, IL1B, SERPIN3, FGA, CDK4, CCND2, CDKN2A, CDKN2B, GADD45A, mCD274, mMmp9, and mBirc5, as indicated. […]

PS-MYC: PS-conjugated peptide corresponding to leucine zipper segment of MAX (amino acids 77–85) (KNHTHQQDI; also: phosphorothioate oligonucleotide conjugate; UniProt P61244 77-85, looked up, fragment)
intracellular localisation / retention of peptide (cancer cells): retained in the nucleus | blood count (anemia) [1]: minor anemia | expression of MYC-mediated cell cycle and survival genes (MYC target genes): markedly downregulated | expression of MYC-suppressed target genes (MYC target genes): upregulating
